Results reported in PMC11555231 (Nature Communications, 2024).
Bridge positions count the residues as written; N and C are the ends. Square brackets hold non-standard residues; d marks the D form. Peptide text beside a SMILES is read from it.

Legend:
[1] = test system: human neutrophils; assay: Ca-ionophore stimulated neutrophils, citrullinated H3 immunostaining and confocal microscopy / immunoblot; assay type: cell-based; conditions: 50 µM peptide, pre-incubated 60 min, 5 µM Ca-Ionophore
Protocol: (§1) Peripheral venous blood was isolated from consenting healthy adult volunteers in heparin tubes as previously described. Briefly, blood samples were on Histopaque 1119 (Sigma-Aldrich) and then centrifuged for 20 min at 800 × g. The plasma was collected and centrifuged for a second time for 20 min at 800 × g. The neutrophil layer was collected and washed in Hyclone Hank’s Balanced Salt Solution (HBSS) -Ca, -Mg, -Phenol red (GE Healthcare) supplemented with 10 mM HEPES (Invitrogen) 0.1% FBS and further purified with a discontinuous Percoll (GE Healthcare) gradient consisting of layers with densities of 85, 80, 75, 70 and 65% and centrifuged for 20 min at 800 × g. Neutrophil-enriched layers were then collected and washed, and neutrophil purity was assessed using flow cytometry.
About 5 × 10^4 sorted neutrophils were seeded in 24-well cell culture plates containing glass coverslips in HyClone HBSS +Ca, +Mg, - Phenol red (GE Healthcare) supplemented with 10 mM HEPES (Invitrogen). Neutrophils were stimulated with 5 µM Ca-Ionophore (Sigma) and fixed for 20 min at room temperature with 2% paraformaldehyde at RT. Cells were then washed and permeabilized with 0.5% Triton X-100 in PBS. Non-specific binding was blocked with 2% BSA (Sigma) and 2% donkey serum (Sigma) in PBS. Samples were stained with DAPI (Life Technologies), the rabbit anti-CitH3 (Abcam; ab5103 1:500) and donkey anti-rabbit alexa488 (Invitrogen; A21206). Fluorescence imaging was performed on a Leica TCS SP8 inverted confocal microscope using sequential scan in between frames mode with a 20x objective.
Neutrophil samples were boiled in a sodium dodecyl sulphate (SDS) buffer containing dithiothreitol (DTT) and run on a polyacrylamide gel electrophoresis (SDS-PAGE) using Criterion TGX precast gels (Any-KD; Bio-Rad Laboratories). Proteins were then transferred to a PVDF membrane (Bio-Rad Laboratories) via semi-dry transfer. The membrane was blocked with 5% BSA (Fisher Scientific) in Tris-buffered saline with 0.1% Tween-20 (TBS-T). Levels of citrullinated histone H3, total H3 and myeloperoxidase (MPO) were assessed by incubating membranes in either anti-histone H3 citrulline R2 + R8 + R17 (Abcam; ab5103 1:1000), anti-histone H3 (Millipore; 07-690 1:10000) or anti-MPO (DAKO; A0398 1:2500) overnight at 4 °C, respectively. For cell lysate-based assays and pull-down assays, membranes were incubated as above with anti-hPADI4 (Abcam; ab50332; 1:1000 in 5% BSA/TBS-T), anti-Bcr (Cell Signalling #3902S; 1:1000 in 3% milk/TBS-T) and anti-Impdh2 (Cell Signalling #57068S; 1:1000 in 3% milk/TBS-T). Membranes were washed in 0.1% TBS-T and subsequently incubated with goat anti-rabbit HRP or anti-goat (Fisher Scientific) for 1 h, followed by final washes in 0.1% TBS-T. Membranes were imaged with enhanced chemiluminescent substrate (ECL) (Thermo Fisher) on a Bio-Rad imager.

[2] = test system: human neutrophils; assay: Cholesterol crystal stimulation and NET preparation, immunoblot of citrullinated histone H3; assay type: cell-based; conditions: 50 µM peptide pre-incubated 1 h, 1 mg/ml cholesterol crystals
Protocol: as §1
About 1 × 10^6 human blood neutrophils were isolated as described in the “Human neutrophils from peripheral blood healthy donors” section. Neutrophils were seeded in 6 well plates in HBSS +Ca, +Mg, -Phenol red (GE Healthcare) containing 10 mM HEPES (Invitrogen), left to settle for 30 min, then pre-incubated with either 50 μM PADI4_3, PADI4_3i or DMSO (0.5%) for 1 h. […] NET DNA concentration was determined by Quant-iT Picogreen dsDNA reagent as per the manufacturer’s instructions (Thermo Fisher Scientific). […]

[3] = test system: HaLo-GFP-mito HeLa cells; assay: Chloroalkane penetration assay (CAPA); assay type: in vitro ADME; conditions: CAPA, chloroalkane-tagged peptide, 4 h in Opti-MEM, 37 °C, chase HaLo-Tag TMR ligand 5 µM 15 min, flow cytometry; mean ± SEM of three independent experiments
Protocol: Following the addition of chloroacetyl-NHS to the N-terminal amino group, Cys(mmt) was selectively deprotected using 1% TFA, 5% triisopropylsilane in DCM (30 min, RT). Peptides were then cyclised on resin using 2% diisopropylethylamine in DMF overnight. Following cyclisation, Lys(ivDde) was deprotected using 2% hydrazine in DMF. The resin was then washed (3 x DCM, 3 x DMF) before on-resin coupling of chloroalkane carboxylic acid was performed on the lysine side chain using Hexafluorophosphate Azabenzotriazole Tetramethyl Uronium / diisopropylethylamine in DMF for 2 h. Global deprotection and purification were then carried out as described above. Chloroalkane carboxylate was synthesised as previously described.
CAPA assays were performed following the protocol published in ref. [51]. In brief, 40,000 HaLo- GFP-mito HeLa cells were seeded in a 96-well plate. Twenty-four hours later, cells were treated with different concentrations of chloroalkane-tagged peptides (100 µM to 200 nM for PADI4_3 and PADI4_3i and 50 µM to 100 nM for PADI4_11 and PADI4_11i) for 4 h in Opti-MEM. Media containing peptides was then removed, and cells were incubated with Opti-MEM (Gibco) for 15 min. After that time, the wash was removed, and cells were chased with HaLo-Tag TMR ligand (5 µM, Promega) in Opti-MEM for 15 min. The ligand was then removed, and cells were incubated with Opti-MEM for 30 min. Cells were then trypsinised, resuspended in phosphate-buffered saline (PBS) with 0.5% FBS and analysed using a benchtop flow cytometer (MACSQuant® VYB Flow cytometer Milteny Biotec). For each well, 10000 GFP positive single cells were analysed (gating workflow shown in Supplementary Fig. 18), and TMR mean fluorescence was normalised against a positive control (cells treated with HaLo-Tag TMR ligand but no peptide) and a negative control (non-treated cells). Analysis was performed using FlowJo (LCC) software and Prism GraphPad (Dotmatics). Data were presented as the average ± standard error of three independent replicates.

[4] = target: T1, Bio-hPADI4 wt (Homo sapiens, UniProt Q9UM07); assay: Surface plasmon resonance (SPR), single cycle kinetics, peptide binding to immobilised PADI4
T1 construct: PADI4 (residues 1–663); Avi-Tag (biotinylated by BirA); made in house; host or cells: E. coli BL21-DE3 co-expressing BirA
T1 sequence (Q9UM07 whole entry, the tested form may be a part): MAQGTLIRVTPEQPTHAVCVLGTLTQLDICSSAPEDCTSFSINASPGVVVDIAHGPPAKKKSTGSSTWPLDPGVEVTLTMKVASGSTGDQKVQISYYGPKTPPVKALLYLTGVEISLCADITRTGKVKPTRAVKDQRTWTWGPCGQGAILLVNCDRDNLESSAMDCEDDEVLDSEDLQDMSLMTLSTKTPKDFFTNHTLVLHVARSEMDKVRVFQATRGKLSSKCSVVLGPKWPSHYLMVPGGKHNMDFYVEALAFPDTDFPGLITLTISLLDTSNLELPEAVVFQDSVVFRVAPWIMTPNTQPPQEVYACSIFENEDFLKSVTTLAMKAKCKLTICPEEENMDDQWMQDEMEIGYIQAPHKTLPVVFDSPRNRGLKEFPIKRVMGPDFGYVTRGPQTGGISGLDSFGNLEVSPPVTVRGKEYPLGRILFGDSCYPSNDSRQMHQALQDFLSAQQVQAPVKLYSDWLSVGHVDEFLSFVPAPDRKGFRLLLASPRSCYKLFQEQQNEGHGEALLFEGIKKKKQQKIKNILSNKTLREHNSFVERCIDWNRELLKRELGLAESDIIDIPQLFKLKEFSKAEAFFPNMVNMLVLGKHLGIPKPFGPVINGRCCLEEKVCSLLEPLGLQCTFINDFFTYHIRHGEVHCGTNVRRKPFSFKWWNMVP
Protocol: Single cycle kinetics analysis by SPR was carried out using a Biacore T200 or S200 and a Biotin CAPture kit, series S (Cytiva). […] 50 mM HEPES (pH 7.5), 150 mM NaCl, 2 mM DTT, 0.05 % Tween-20, 0.1% DMSO and variable CaCl2 (as specified) was used as the running buffer and experiments performed at 25 °C.
Samples were run with 120 s contact time, and variable dissociation time (often 360 s). Data were analysed using the Biacore T200 analysis software; data was fitted to a 1:1 binding model accounting for baseline drift where necessary. Data are presented as the average ± standard deviation of at least two independent replicates.

N=C(N)NCCC[C@@H]1NC(=O)[C@H](CC(=O)O)NC(=O)[C@@H](Cc2ccc(O)cc2)NC(=O)CSC[C@@H](C(=O)NCC(N)=O)NC(=O)[C@H](Cc2ccc(O)cc2)NC(=O)[C@H](CCCCN)NC(=O)[C@@H]2CCCN2C(=O)[C@H](Cc2c[nH]cn2)NC(=O)[C@H](CCCNC(=N)N)NC(=O)[C@H](Cc2ccc(O)cc2)NC(=O)[C@H](Cc2c[nH]cn2)NC(=O)[C@H](Cc2c[nH]cn2)NC1=O [PADI4_3i] ({CH2CO}-[dY]DRHHYRHPKYCG-NH2; thioether N-12)
H3Cit levels in neutrophils treated with calcium ionophore [1]: neither response was affected
citrullination of histone 3 in NET preparations [2]: abolished by PADI4_3 but not PADI4_3i
CP50 [3]: 2.0 ± 0.8 µM
binding to PADI4 (in words) [4]: did not bind
